Drawing on BindingDB's records for doi:10.7270/Q2CF9NJZ (Nmmlsc, 2010), this text covers EC50 for 27 compounds.

Where only a bound is given, the exact number is not on record here.

Chain of Regulator of G-protein signaling 4 (P49798 whole entry): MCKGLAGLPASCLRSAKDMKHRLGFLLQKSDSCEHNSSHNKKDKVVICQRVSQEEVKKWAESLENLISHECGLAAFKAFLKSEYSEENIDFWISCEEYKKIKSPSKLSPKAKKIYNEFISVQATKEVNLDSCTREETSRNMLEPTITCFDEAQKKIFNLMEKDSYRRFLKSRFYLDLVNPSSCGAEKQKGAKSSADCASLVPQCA

The first test addresses Regulator of G-protein signaling 4 (Homo sapiens, UniProt P49798). Kind of test: small molecules altering RGS4 interaction with Galphao – biochemical, multiplexed bead flow cytometry, SAR compounds, SAR follow-up (AID 2295).
Settings: not given
`Cc1[nH]n(-c2ccccc2)c(=S)c1/C=N/c1cccc([N+](=O)[O-])c1` [(4E)-5-methyl-4-[(3-nitroanilino)methylene]-2-phenyl-2-pyrazoline-3-thione] showed an EC50 of 11 µM. The same measure, in the same setting: then `Cc1cc(C)c2c(=O)n(CC(=O)N3CCN(c4ccccc4)CC3)ccc2n1` [2,4-dimethyl-6-[2-oxidanylidene-2-(4-phenylpiperazin-1-yl)ethyl]-1,6-naphthyridin-5-one], with > 30 µM; and `CC1(C)OC(=O)C(=Cc2ccc(-c3ccc(S(N)(=O)=O)cc3)o2)C(=O)O1` [SMR000273939], with > 30 µM. With `O=C(NCCCN1CCOCC1)c1sc2cc([N+](=O)[O-])ccc2c1Cl` [3-chloranyl-N-(3-morpholin-4-ylpropyl)-6-nitro-1-benzothiophene-2-carboxamide], the midpoint of the response, the EC50, lay at 10.1 µM. On the same count and under the same terms, under `CN1CCN(C2=C(Cl)C(=O)C(c3cnc(N4CCCCC4)s3)=C(Cl)C2=O)CC1` stands 0.336 µM. `CCN(CC)S(=O)(=O)c1cccc(C(=O)NN=Cc2ccc(O)c(O)c2O)c1` came in with an EC50 of 0.632 µM. On to `O=C(Cc1csc(N2CCOCC2)n1)NN=Cc1ccc(O)c(O)c1O` [SMR000369439], for which the EC50 was 1.1 µM.

In the case of `Cc1cc(C)c2c(n1)CCN(CC(=O)N1CCN(c3ccccc3)CC1)C2=O` [2,4-dimethyl-6-[2-oxidanylidene-2-(4-phenylpiperazin-1-yl)ethyl]-7,8-dihydro-1,6-naphthyridin-5-one], the EC50 was > 30 µM.

In the case of `Cc1cc(Cl)ccc1/N=c1/ssnc1Cl` [MLS000539990], a half-maximal effect (EC50) was put at 0.3 µM. Compound `NS(=O)(=O)c1ccc(N=NCc2ccc(O)c(O)c2O)c([N+](=O)[O-])c1` [4-[[(E)-(2,3-dihydroxy-4-oxo-1-cyclohexa-2,5-dienylidene)methyl]hydrazo]-3-nitrobenzenesulfonamide] had an EC50 of 1.2 µM. The compound `O=C(COc1ccccc1C(=O)NN=Cc1ccc(O)c(O)c1)NN=Cc1ccc(O)c(O)c1` [N''-[(Z)-(3-hydroxy-4-oxo-1-cyclohexa-2,5-dienylidene)methyl]-2-[2-[[(Z)-(3-hydroxy-4-oxo-1-cyclohexa-2,5-dienylidene)methyl]hydrazo]-2-oxoethoxy]benzohydrazide] returned an EC50 of 0.164 µM. For `COc1ccc(C2=CC(=O)C=CC2=O)cc1` [MLS001029846], it took 0.573 µM to reach a half-maximal effect (EC50). Still for that read-out and setting: then `Cc1cccc(N2CCN(C(=O)COc3nsc4nc(C)cc(C)c34)CC2C)c1` (configuration not stated), with 6.85 µM; and `COC(=O)CCC(=O)Nc1sc(C)c(C)c1C(N)=O` [4-[(3-carbamoyl-4,5-dimethyl-2-thienyl)amino]-4-keto-butyric acid methyl ester], with > 30 µM; and `CCN(CC)S(=O)(=O)c1cccc(-c2n[nH]c(=S)n2N=Cc2ccc(C(=O)OC)cc2)c1` [4-[(E)-[3-[3-(diethylsulfamoyl)phenyl]-5-thioxo-1H-1,2,4-triazol-4-yl]iminomethyl]benzoic acid methyl ester], with 9.64 µM. In the case of `CCOC(=O)c1sc(NC(=O)CSc2nnc(Cc3ccccc3)o2)c(C#N)c1C` [4-cyano-3-methyl-5-[[1-oxo-2-[[5-(phenylmethyl)-1,3,4-oxadiazol-2-yl]thio]ethyl]amino]-2-thiophenecarboxylic acid ethyl ester], the EC50 turned out to be 7.85 µM. This EC50 and that of the compound before are within 1.5-fold of each other. On to `Cc1cccc(N2CCN(C(=O)COc3noc4nc(C)cc(C)c34)CC2C)c1` (configuration not stated) [2-[(4,6-dimethyl-[1,2]oxazolo[5,4-b]pyridin-3-yl)oxy]-1-[3-methyl-4-(3-methylphenyl)piperazin-1-yl]ethanone], for which the EC50 is > 30 µM. On the same count and under the same terms, then `Nc1c(C(=O)NCC2CCCO2)sc2nc3c(c(-c4ccco4)c12)CC/C3=C/c1ccco1` (configuration not stated) [UNM-0000305796], with > 30 µM. As to `O=C1C(Cl)=C(N2CCCCC2)C(=O)C(Cl)=C1c1cnc(N2CCCCC2)s1` [MLS000550549], the EC50 was found to be 0.269 µM. In the case of `O=c1c2ccccc2sn1-c1ccccc1` [2-phenyl-1,2-benzothiazol-3-one], the EC50 was found to be 0.135 µM.

Regarding `Cc1cccc(N2CCN(C(=O)CN3CCc4nc(C)cc(C)c4C3=O)CC2C)c1` (configuration not stated) [KUC103675N], the EC50 is > 30 µM. `CCC(=O)NC(c1ccc(C)cc1)c1cc([N+](=O)[O-])c2cccnc2c1O` (configuration not stated) [MLS000553854] registered an EC50 of 6.61 µM. Consider `CN=c1scc(C)n1N=Cc1ccc(O)c(O)c1O` [(4E)-2,3-dihydroxy-4-[[(4-methyl-2-methylimino-1,3-thiazol-3-yl)amino]methylidene]cyclohexa-2,5-dien-1-one], for which the midpoint of the response, the EC50, lay at 1.71 µM.

For `Cc1cccc(N2CCN(C(=O)Cn3ccc4nc(C)cc(C)c4c3=O)CC2C)c1` (configuration not stated) [2,4-dimethyl-6-[2-[3-methyl-4-(3-methylphenyl)piperazin-1-yl]-2-oxidanylidene-ethyl]-1,6-naphthyridin-5-one], the EC50 was > 30 µM. The compound `O=c1c2ccccc2sn1-c1ccc(S(=O)(=O)N2CCCC2)cc1` [2-(4-pyrrolidin-1-ylsulfonylphenyl)-1,2-benzothiazol-3-one] showed an EC50 of 0.323 µM.

For `CCN=c1scc(C)n1N=Cc1ccc(O)c(O)c1O`, it took 3.52 µM to reach a half-maximal effect (EC50).

The test is the same for the next values; noted with them: inactive by the depositor's call.
For the compound `CCOc1ccccc1-c1c2cc(O)c(=O)cc-2oc2cc(O)c(O)cc12` [MLS000578271], the EC50 was found to be 3.66 µM. This counts as single-digit micromolar.
